Reference: patent publication US20240050449A1, “Use of Acetyltanshinone IIA in Preparation of Medicament for Treating Lung Cancer and Medicament for Treating Lung Cancer” (UNIVERSITY OF MACAU, priority 2022, published 2024)
Entries after “also recorded” stand apart in the source; their conditions may differ.

Experiments:
Format in all cases: cell-based
[1] = test system: H1975 cells; assay: MTT cell viability assay, H1975 cells
Experimental: (§1) Cells were seeded at a density of 3×10^3 per well in 96-well plates, allowed to attach overnight, and treated with various concentrations of agent. After 72 h of treatment, 10 μL of MTT solution (5 mg/mL) was added to each well and cultured in the plate for 4 h. The crystallized formazan was dissolved in 100 μL of 10% (w/v) SDS and 0.01 mol/L HCl solution for 24 h, and then the value was read by spectrophotometry at 595 nm using a microplate reader.

[2] = test system: H1650 cells; assay: MTT cell viability assay, H1650 cells
Experimental: as §1

[3] = test system: A549 cells; assay: Transwell Matrigel invasion assay
Experimental: Cell migration and invasion assays were performed in a transwell chamber (Corning, #3422) with a pore size of 8 μm. Cells were treated with different concentrations of ATA and Erlotinib for 48 h, then harvested and resuspended in a serum-free medium. Cells (1×10^4) were added to the upper side of the transwell chamber and fresh medium containing 10% FBS was added to the lower side. Cells were allowed to migrate from the upper side to the lower side of the chamber at 37° C. for 24 h. Membranes from the cell chamber were fixed with 4% paraformaldehyde for 20 min. The cells remaining on the upper side of the membrane were gently removed with a cotton swab and stained with 1% crystal violet for 20 min to stain the cells migrating to the other side of the transwell chamber. The membrane was then cut and fixed on a glass slide. The migrated cells on each slide were imaged with a Leica M165-FC microscope. For the transwell invasion assay, a Matrigel solution (Corning, #356230) was diluted to one-thirtieth with serum-free medium and applied to the upper side of the precoated chamber for 2 h, after the Matrigel had solidified, the cells were added to the upper side of the transwell chamber. The following procedure is identical to the migration assay. Migrated and invaded cells were quantified using ImageJ software.

Q: Which results are given for `CC(=O)Oc1c(OC(C)=O)c2c(C)coc2c2ccc3c(c12)CCCC3(C)C` [ATA, acetyltanshinone IIA]?
A: IC50 ratio of Erlotinib/ATA [1]: 6; IC50 ([1]; MTT, 72 h): 1.76 ± 0.02 µM; IC50 ratio of Erlotinib/ATA [2]: 17.3; growth inhibition compared with other agents ([2]; ATA 2 μM, 72 h, MTT): significantly higher than all three inhibitors; also recorded: greater growth inhibition than combination therapy with Erlotinib and MLN8237; IC50 ([2]; MTT, 72 h): 1.28 ± 0.29 µM; effect on cell invasion ([3]; 0.5 μM): significant inhibitory effect; reduction of invasion ability ([3]; 1 μM): 88%
